# Experimental data taken from patent US9884063B2, “Amido-substituted azole compounds” (Bayer Pharma Aktiengesellschaft, priority 2014, dated 2018).
# Key:
# [1] = system: wildtype Wnt signaling cascade; test: HEK293 TOP Assay (Super TopFlash luciferase reporter, Wnt-3a stimulated); assay type: cell-based; settings: Homo sapiens, HEK293, 16 h
# Procedure, shortened: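 Compounds (50 μM down to 15 nM, 3.16-fold steps, in CAFTY buffer pH 7.4, 2 mM Ca2+, 0.01% BSA) tested in parallel on TOP and FOP HEK293 reporter lines to define selective wildtype Wnt inhibition. Pathway driven by recombinant human Wnt-3a applied at 2500–5 ng/ml in two-fold dilutions.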
# [2] = system: HEK293 FOP control reporter cell line; test: HEK293 FOP Assay (FOP control vector luciferase reporter); assay type: cell-based; settings: Homo sapiens
# Method: In a parallel approach, HEK293 cells were cotransfected with the FOP control vector and pcDNA3. The FOP vector is identical to the TOP construct, but it contains instead of functional TCF elements a randomized, non-functional sequence. For this transfection a stable transfected cell line was generated as well, based on selection with Geneticin (1 mg/ml).
# In preparation of the assay, the two cell lines were plated 24 hrs before beginning the test at 10000 cells per well in a 384 micro titre plate (MTP) in 30 μl growth medium. […] The recombinant human Wnt-3a was thereby applied between 2500 and 5 ng/ml in two-fold dilution steps.
# Selective inhibitory activity for small molecules on the wildtype Wnt pathway was determined after parallel incubation of both (TOP and FOP) HEK293 reporter cell lines with a compound dilution series from 50 μM to 15 nM in steps of 3.16-fold dilutions in CAFTY buffer (130 mM sodium chloride, 5 mM potassium chloride, 20 mM HEPES, 1 mM magnesium chloride, 5 mM sodium bicarbonate, pH 7.4) containing 2 mM Ca^2+ and 0.01% BSA.
# The compounds were thereby serially prediluted in 100% DMSO and thereafter 50 fold into the CAFTY compound dilution buffer (described above).
# [3] = HEK293 TOP reporter cell line, Wnt-3a at EC50, 16 hours incubation, compound dilution series 50 μM to 15 nM
# [4] = HEK293 FOP control reporter cell line, 16 hours incubation, compound dilution series 50 μM to 15 nM
# [5] = HEK293 TOP reporter cells, Wnt3a at EC50, 16 hours, luciferase
# [6] = HEK293 FOP control reporter cells, 16 hours, luciferase, dilution series from 50 μM
Structure (SMILES),"IC50 [1, 3] [µM]","IC50 [1, 5] [µM]","IC50 [2, 4] [µM]","IC50 [2, 6] [µM]"
"CNC(=O)c1nc[nH]c1C(=O)Nc1ccc(NC(=O)c2ccc(F)cc2)c(F)c1 [Example 76, N^5-{3-fluoro-4-[(4-fluorobenzoyl)amino]phenyl}-N^4-methyl-1H-imidazole-4,5-dicarboxamide]",12,–,7.4,–
"Cc1cc(NC(=O)c2[nH]cnc2C(=O)NCCN(C)C)ccc1NC(=O)c1ccc(F)cc1 [Example 92, N^4-[2-(dimethylamino)ethyl]-N^5-{4-[(4-fluorobenzoyl)amino]-3-methylphenyl}-1H-imidazole-4,5-dicarboxamide]",6.95,–,13,–
"CC(C)(C)NC(=O)c1[nH]cnc1C(=O)Nc1ccc(NC(=O)c2ccc(F)cc2)cc1 [Example 129, N^5-tert-butyl-N^4-{4-[(4-fluorobenzoyl)amino]phenyl}-1H-imidazole-4,5-dicarboxamide]",6.75,–,15,–
"CN1CCN(C(C)(C)CNC(=O)c2[nH]cnc2C(=O)Nc2ccc(NC(=O)c3ccc(F)cc3)cc2)CC1 [Example 188, N^4-{4-[(4-fluorobenzoyl)amino]phenyl}-N^5-[2-methyl-2-(4-methylpiperazin-1-yl)propyl]-1H-imidazole-4,5-dicarboxamide]",5.9,–,15,–
"CC1CCN(CC(C)(C)NC(=O)c2[nH]cnc2C(=O)Nc2ccc(NC(=O)c3ccc(F)cc3)cc2)CC1 [Example 175, N^4-{4-[(4-fluorobenzoyl)amino]phenyl}-N^5-[2-methyl-1-(4-methylpiperidin-1-yl)propan-2-yl]-1H-imidazole-4,5-dicarboxamide]",3.5,–,27,–
"CNC(=O)c1nc[nH]c1C(=O)Nc1ccc(NC(=O)c2cccc(Cl)c2)cc1 [Example 325, N^5-{4-[(3-chlorobenzoyl)amino]phenyl}-N^4-methyl-1H-imidazole-4,5-dicarboxamide]",4.9,–,10,–
"CNC(=O)c1nc[nH]c1C(=O)Nc1ccc(NC(=O)c2cccc(C(F)(F)F)c2)cc1 [Example 314, N^4-methyl-N^5-(4-{[3-(trifluoromethyl)benzoyl]amino}phenyl)-1H-imidazole-4,5-dicarboxamide]",6.9,–,24,–
"O=C(Nc1ccc(NC(=O)c2nc[nH]c2C(=O)NCCCCN2CCCCC2)cc1)c1ccc(F)cc1 [Example 201, N^4-{4-[(4-fluorobenzoyl)amino]phenyl}-N^5-[4-(piperidin-1-yl)butyl]-1H-imidazole-4,5-dicarboxamide]",4.5,–,0.03,–
"COC(=O)c1nc[nH]c1C(=O)Nc1ccc(NC(=O)c2ccc(F)cc2)c(C)c1 [Example 90, methyl-5-({4-[(4-fluorobenzoyl)amino]-3-methylphenyl}carbamoyl)-1H-imidazole-4-carboxylate]",4.9,–,13,–
"CN1CCN(CC(C)(C)NC(=O)c2[nH]cnc2C(=O)Nc2ccc(NC(=O)c3ccccc3Cl)cc2)CC1 [Example 203, N^4-{4-[(2-chlorobenzoyl)amino]phenyl}-N^5-[2-methyl-1-(4-methylpiperazin-1-yl)propan-2-yl]-1H-imidazole-4,5-dicarboxamide]",3.05,–,28,–
"CNC(=O)c1nc[nH]c1C(=O)Nc1ccc(NC(=O)c2ccccc2C(F)(F)F)cc1 [Example 58, N^4-methyl-N^5-(4-{[2-(trifluoromethyl)benzoyl]amino}phenyl)-1H-imidazole-4,5-dicarboxamide]",3.35,–,29,–
"CNC(=O)c1nc[nH]c1C(=O)Nc1ccc(NC(=O)c2cc(Cl)cc(Cl)c2)cc1 [Example 327, N^5-{4-[(3,5-dichlorobenzoyl)amino]phenyl}-N^4-methyl-1H-imidazole-4,5-dicarboxamide]",39.5,–,37,–
"CC(C)c1nc(C(=O)Nc2ccc(NC(=O)c3ccc(F)cc3Cl)cc2)c(C(=O)NCCN(C)C)[nH]1 [Example 107, N^4-{4-[(2-chloro-4-fluorobenzoyl)amino]phenyl}-N^5-[2-(dimethylamino)ethyl]-2-isopropyl-1H-imidazole-4,5-dicarboxamide]",7.25,–,39,–
"CNC(=O)c1nc[nH]c1C(=O)Nc1ccc(NC(=O)c2ccc(OC)c(OC)c2OC)cc1 [Example 40, N^4-methyl-N^5-{4-[(2,3,4-trimethoxybenzoyl)amino]phenyl}-1H-imidazole-4,5-dicarboxamide]",12,12,–,≥ 50
"CC(C)(C)CNC(=O)c1[nH]cnc1C(=O)Nc1ccc(NC(=O)c2ccc(F)cc2)cc1 [Example 149, N^5-(2,2-dimethylpropyl)-N^4-{4-[(4-fluorobenzoyl)amino]phenyl}-1H-imidazole-4,5-dicarboxamide]",5.2,–,22,–

# Stronger by IC50 [1, 3], values ahead:
"IC50 [1, 3] [µM]","IC50 [1, 5] [µM]",Structure (SMILES),"IC50 [2, 4] [µM]","IC50 [2, 6] [µM]"
2.65,–,"CNC(=O)c1nc[nH]c1C(=O)Nc1ccc(NC(=O)c2cccc(Cl)c2C)cc1 [Example 341, N^5-{4-[(3-chloro-2-methylbenzoyl)amino]phenyl}-N^4-methyl-1H-imidazole-4,5-dicarboxamide]",45,–
2.5,–,"CC(C)(CN1CCCCC1)NC(=O)c1[nH]cnc1C(=O)Nc1ccc(NC(=O)c2ccc(F)cc2)cc1 [Example 156, N^4-{4-[(4-fluorobenzoyl)amino]phenyl}-N^5-[2-methyl-1-(piperidin-1-yl)propan-2-yl]-1H-imidazole-4,5-dicarboxamide]",15,–
2.3,2.3,"CNC(=O)c1nc[nH]c1C(=O)Nc1ccc(NC(=O)c2c(F)cccc2F)cc1 [Example 38, N^5-{4-[(2,6-difluorobenzoyl)amino]phenyl}-N^4-methyl-1H-imidazole-4,5-dicarboxamide]",14,14
1.65,–,"COc1cc(NC(=O)c2[nH]cnc2C(=O)NCCN2CCCCC2)ccc1NC(=O)c1ccc(F)cc1 [Example 105, N^5-{4-[(4-fluorobenzoyl)amino]-3-methoxyphenyl}-N^4-[2-(piperidin-1-yl)ethyl]-1H-imidazole-4,5-dicarboxamide]",29,–
1.6,–,"CN1CCN(C(C)(C)CNC(=O)c2[nH]cnc2C(=O)Nc2ccc(NC(=O)c3ccccc3Cl)cc2)CC1 [Example 202, N^4-{4-[(2-chlorobenzoyl)amino]phenyl}-N^5-[2-methyl-2-(4-methylpiperazin-1-yl)propyl]-1H-imidazole-4,5-dicarboxamide]",9.8,–
1.25,–,"CNC(=O)c1nc[nH]c1C(=O)Nc1ccc(NC(=O)c2ccccc2Cl)c(C)c1 [Example 87, N^5-{4-[(2-chlorobenzoyl)amino]-3-methylphenyl}-N^4-methyl-1H-imidazole-4,5-dicarboxamide]",28,–
1.01,–,"CN1CCN(CC(C)(C)NC(=O)c2[nH]cnc2C(=O)Nc2ccc(NC(=O)c3ccc(F)cc3)cc2)CC1 [Example 195, N^4-{4-[(4-fluorobenzoyl)amino]phenyl}-N^5-[2-methyl-1-(4-methylpiperazin-1-yl)propan-2-yl]-1H-imidazole-4,5-dicarboxamide]",12,–
0.68,–,"CC(CNC(=O)c1[nH]cnc1C(=O)Nc1ccc(NC(=O)c2ccc(F)cc2)cc1)N1CCCCC1 (stereo not drawn) [Example 183, N^4-{4-[(4-fluorobenzoyl)amino]phenyl}-N^5-[2-(piperidin-1-yl)propyl]-1H-imidazole-4,5-dicarboxamide]",28,–
0.51,–,"COC(=O)c1nc[nH]c1C(=O)Nc1ccc(NC(=O)c2ccccc2Cl)c(F)c1 [Example 79, methyl-5-({4-[(2-chlorobenzoyl)amino]-3-fluorophenyl}carbamoyl)-1H-imidazole-4-carboxylate]",8.2,–
0.47,–,"O=C(Nc1ccc(NC(=O)c2nc[nH]c2C(=O)NCCCN2CCC(O)CC2)cc1)c1ccc(F)cc1Cl [Example 275, N^4-{4-[(2-chloro-4-fluorobenzoyl)amino]phenyl}-N^5-[3-(4-hydroxypiperidin-1-yl)propyl]-1H-imidazole-4,5-dicarboxamide]",9.6,–
0.42,–,"CC(CNC(=O)c1[nH]cnc1C(=O)Nc1ccc(NC(=O)c2ccccc2Cl)cc1)N1CCN(C)CC1 (stereo not drawn) [Example 186, N^4-{4-[(2-chlorobenzoyl)amino]phenyl}-N^5-[2-(4-methylpiperazin-1-yl)propyl]-1H-imidazole-4,5-dicarboxamide]",28,–
0.41,–,"CN1CCN(CC(C)(C)NC(=O)c2[nH]cnc2C(=O)Nc2ccc(NC(=O)c3ccc(F)cc3Cl)cc2)CC1 [Example 194, N^4-{4-[(2-chloro-4-fluorobenzoyl)amino]phenyl}-N^5-[2-methyl-1-(4-methylpiperazin-1-yl)propan-2-yl]-1H-imidazole-4,5-dicarboxamide]",2.3,–
